The values that follow come from US8207160B2, “Tetrahydrobenzazepines and their use in he modulation of the dopamine D3 receptor” (Abbott GmbH & Co. KG, priority 2003, dated 2012).

The target in assay [1] is T1, human dopamine D3 receptors (Homo sapiens, UniProt P35462).
T1 construct: expressed in transfected cells; membranes used
Nature of the assay: Dopamine D3 receptor binding, displacement of [125I]-iodosulpride. How it is done:
(§1) C) Biological Investigations—Receptor-Binding Studies: • The substance to be tested was dissolved either in methanol/Chremophor®) (BASF-AG) or in dimethyl sulfoxide and then diluted with water to the desired concentration.
I. Dopamine D3 Receptor: • The mixture (0.250 ml) was composed of membranes from ˜10^6 HEK-293 cells with stably expressed human dopamine D3 receptors, 0.1 nM [^125I]-iodosulpride and incubation buffer (total binding) or additionally test substance (inhibition plot) or 1 μM spiperone (nonspecific binding). Triplicate assays were carried out. • The incubation buffer contained 50 mM Tris, 120 mM NaCl, 5 mM KCl, 2 mM CaCl2, 2 mM MgCl2 and 0.1% bovine serum albumin, 10 μM quinolone, 0.1% ascorbic acid (prepared freshly each day). The buffer was adjusted to pH 7.4 with HCl.
(§2) III. Measurement and Evaluation: • After incubation at 25° C. for 60 minutes, the mixtures were filtered through Wathman GF/B glass fiber filters under vacuum using a cell harvester. The filters were transferred using a filter transfer system into scintillation vials. After addition of 4 ml of Ultima Gold® (Packard), the samples were shaken for one hour and then the radioactivity was counted in a Beta Counter (Packard, Tricarb 2000 or 2200CA). The cp values were converted into dpm on the basis of a standard quench series with the aid of the program supplied with the instrument. • The inhibition plots were evaluated by iterative nonlinear regression analysis using the Statistical Analysis System (SAS), similar to the “LIGAND” program described by Munson and Rodbard. • The compounds of the invention show very good affinities for the D3 receptor in these assays (<100 nM, frequently <50 nM) and bind selectively to the D3 receptor.
In general terms: Loss of bound radioactivity is the signal in a displacement assay; it reports binding, not function.

Assay [2] has as its target T2, human dopamine D2L receptors (long isoform) (Homo sapiens, UniProt P14416).
T2 construct: expressed in transfected cells; membranes used
Briefly: Dopamine D2L receptor binding, displacement of [125I]-iodospiperone. The settings on record: Ki(D2L)/Ki(D3); human D2L and D3 receptors in HEK-293 membranes. On the procedure:
as §1
II. Dopamine D2L receptor: • The mixture (1 ml) was composed of membranes from ˜10^6 HEK-293 cells with stably expressed human dopamine D2L receptors (long isoform) and 0.01 nM [^125I]-iodospiperone and incubation buffer (total binding) or additionally test substance (inhibition plot) or 1 μM haloperidol (nonspecific binding). Triplicate assays were carried out. • The incubation buffer contained 50 mM Tris, 120 mM NaCl, 5 mM KCl, 2 mM CaCl2, 2 mM MgCl2 and 0.1% bovine serum albumin. The buffer was adjusted to 7.4 with HCl.
as §2

Setting [3] is: membranes from HEK-293 cells with stably expressed human dopamine D3 receptors, 0.1 nM [125I]-iodosulpride, 25° C., 60 minutes, read-out: Ki (D3).

Like-named read-outs stand apart in the source and are kept apart here.

T1 sequence (P35462 whole entry): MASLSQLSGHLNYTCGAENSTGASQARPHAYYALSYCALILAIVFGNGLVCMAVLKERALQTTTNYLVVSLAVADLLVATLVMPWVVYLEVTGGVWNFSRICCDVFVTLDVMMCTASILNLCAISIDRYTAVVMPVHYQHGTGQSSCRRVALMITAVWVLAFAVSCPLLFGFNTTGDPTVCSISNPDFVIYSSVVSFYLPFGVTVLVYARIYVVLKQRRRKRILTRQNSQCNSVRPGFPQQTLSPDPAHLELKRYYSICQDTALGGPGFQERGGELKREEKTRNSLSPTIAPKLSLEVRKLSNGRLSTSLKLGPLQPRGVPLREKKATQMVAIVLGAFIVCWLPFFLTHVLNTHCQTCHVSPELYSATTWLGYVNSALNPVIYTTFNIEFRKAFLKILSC
T2 sequence (P14416 whole entry, canonical isoform): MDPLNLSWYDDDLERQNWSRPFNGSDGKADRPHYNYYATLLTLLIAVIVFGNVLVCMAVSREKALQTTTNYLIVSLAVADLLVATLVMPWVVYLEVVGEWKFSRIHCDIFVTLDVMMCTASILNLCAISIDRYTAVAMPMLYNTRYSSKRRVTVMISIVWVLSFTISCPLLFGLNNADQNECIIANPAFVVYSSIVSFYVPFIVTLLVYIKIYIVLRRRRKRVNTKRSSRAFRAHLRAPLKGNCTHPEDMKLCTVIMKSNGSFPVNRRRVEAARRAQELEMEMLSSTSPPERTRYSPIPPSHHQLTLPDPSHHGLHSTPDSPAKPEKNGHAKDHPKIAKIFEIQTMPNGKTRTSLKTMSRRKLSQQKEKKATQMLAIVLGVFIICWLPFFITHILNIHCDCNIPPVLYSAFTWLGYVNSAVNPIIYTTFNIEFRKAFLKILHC

Broadly, the Ki is a dissociation constant, usually derived from enzyme kinetics or from competition with a known ligand. In the case of `CCCN1CCc2ccc(NS(=O)(=O)c3ccc(C(C)(C)CC)cc3)cc2CC1.O=C(O)C(F)(F)F` [Example 14, 4-(1,1-Dimethylpropyl)-N-(3-Propyl-2,3,4,5-Tetrahydro-1H-3-Benzazepin-7-yl)Benzenesulfonamide Trifluoroacetate], the Ki in assay [1] (setting [3]) came to 3.6 nM. The “Selectivity vs. D2L*” value in assay [2] worked out at 113.
In assay [1], `CCCN1CCc2ccc(NS(=O)(=O)c3cc(Cl)sc3Cl)cc2CC1.O=C(O)C(F)(F)F` [Example 22, N-(3-Propyl-2,3,4,5-Tetrahydro-1H-3-Benzazepin-7-yl)-2,5-Dichlorothiophene-3-Sulfonamide Trifluoroacetate] yielded a Ki of 13 nM. For the same compound, the “Selectivity vs. D2L*” value in assay [2] is reported as 46.
On to `CCCCc1ccc(S(=O)(=O)Nc2ccc3c(c2)CCN(CCC)CC3)cc1.O=C(O)C(F)(F)F` [Example 13, 4-Butyl-N-(3-Propyl-2,3,4,5-Tetrahydro-1H-3-Benzazepin-7-yl)Benzene-Sulfonamide Trifluoroacetate], for which the Ki in assay [1] (setting [3]) is 0.6 nM. Besides, the “Selectivity vs. D2L*” value in assay [2] was determined as 143.
`CCCN1CCc2ccc(NS(=O)(=O)c3ccc(C(C)C)cc3)cc2CC1.Cl` [Example 8, 4-Isopropyl-N-(3-Propyl-2,3,4,5-Tetrahydro-1H-3-Benzazepin-7-yl)Benzenesulfonamide Hydrochloride]: in assay [1] (setting [3]), the Ki amounted to 0.3 nM. For the same compound, in assay [2], the “Selectivity vs. D2L*” value was found to be 330.
In the same order, the values of `CCCN1CCc2ccc(NS(=O)(=O)c3ccc(OC)cc3)cc2CC1.O=C(O)C(F)(F)F` [Example 16, 4-Methoxy-N-(3-Propyl-2,3,4,5-Tetrahydro-1H-3-Benzazepin-7-yl)Benzene-Sulfonamide Trifluoroacetate] are 8.1 nM and 142.
